In brackets after ≈: the same amount, converted by molar mass.
Legend:
[1] = system: S. aureus SR3637 (H-MRSA); assay: Protective effect in systemically infected mice; type: in vivo; details: mice challenged intraperitoneally with S. aureus SR3637 (H-MRSA); subcutaneous administration one hour after challenge; survival ratio on 7th day
Method: (§1) Antibacterial activity in vivo of stalobacin I was assayed. Mice were intraperitoneally challenged with infectious bacteria. One hour after the challenge, the test compound was subcutaneously administered. ED50 values was calculated on the basis of survival ratio on 7th day after the challenge. MIC was determined according to the agar dilution method.

[2] = system: E. faecalis SR1004; assay: Protective effect in systemically infected mice; type: in vivo; details: mice challenged intraperitoneally with E. faecalis SR1004; subcutaneous administration one hour after challenge; survival ratio on 7th day
Method: as §1

[3] = system: S. pneumoniae Type I; assay: Protective effect in systemically infected mice; type: in vivo; details: mice challenged intraperitoneally with S. pneumoniae Type I; subcutaneous administration one hour after challenge; survival ratio on 7th day
Method: as §1

[4] = system: S. aureus SR3637 (H-MRSA); type: cell-based
Method: as §1

[5] = system: E. faecalis SR1004; type: cell-based
Method: as §1

[6] = system: S. pneumoniae Type I; type: cell-based
Method: as §1

[7] = system: S. aureus FDA JC-1; assay: In vitro antibacterial activity, agar dilution method; type: cell-based; details: 10^6 cfu/ml
Method: (§2) Antibacterial activity in vitro of antibiotic stalobacins H and I obtained in Example 1 was assayed by the agar dilution method.

[8] = system: S. faecalis SR1004; assay: as above; type: cell-based; details: 10^6 cfu/ml
Method: as §2

[9] = system: S. aureus 3626 (MRSA); assay: as above; type: cell-based; details: 10^6 cfu/ml
Method: as §2

MIC [4]: 0.012 µg/mL (≈ 9.05 nM)
MIC [5]: 0.2 µg/mL (≈ 151 nM)
MIC [6]: 0.006 µg/mL (≈ 4.53 nM)
SMILES: CCCCCC/C=C\CCCCC[C@@H]1C[C@H]1/C=C/C(O)C(=O)N[C@H](C(=O)N(C)[C@@H](CC(=O)O)C(=O)N(COC(C)(CC)C(NC(=O)C(NC(=O)[C@@H](N)CC(=O)O)C(O)C(O)CNC(=N)N)C(=O)NCC(=O)N[C@@H](CO)C(=O)O)[C@@]12C[C@@H]1CN(C(=N)N)C2=O)[C@H](O)C(=O)O (stereo partly drawn) [Stalobacin I]
ED50 [1]: 0.12 mg/kg
ED50 [2]: 1.50 mg/kg
ED50 [3]: 0.046 mg/kg
Antibacterial activity in vitro [7]: 0.05 µg/mL
Antibacterial activity in vitro [8]: 0.2 µg/mL
Antibacterial activity in vitro [9]: 0.1 µg/mL

From patent EP0748335B1, “ANTIBIOTIC STALOBACINS” (SHIONOGI & CO., LTD., priority 1994, dated 1995)
